Reference: paper PMC4061029, “A Stable and Reproducible Human Blood-Brain Barrier Model Derived from Hematopoietic Stem Cells” (PLoS ONE, 2014)

What was measured:
[1] = system: CD34+-derived ECs co-cultured with pericytes; assay: Abrogation of Wnt signaling: paracellular permeability of ECs co-cultured with pericytes; assay type: cell-based, human; conditions: co-culture with pericytes, 4 days, 0.1 or 1 µM, luminal side
Protocol: Prior to the experiments, HEPES-buffered Ringer’s solution (in some cases EBM-2 medium) was added to empty wells of a 12-well plate (Costar). Filter inserts, containing confluent monolayers of CD34^+-ECs, were subsequently placed in the 12-well plate, filled with compound solution containing the fluorescent integrity marker Lucifer Yellow (20 µM; Life Technologies), and then placed on an orbital shaker. After 1 h, filter inserts were withdrawn from the receiver compartment. Aliquots from the donor solution were taken at the beginning and at the end of the experiments and the fluorescence was quantified. At least three inserts with cells and three without cells were tested in each permeability measurement. Fluorescence detection was carried out on a Synergy H1 multiplates reader (Biotek) using the following excitation/emission wavelength (nm) settings: 432/538; 490/516; 542/570 for Lucifer yellow, Fluorescein Na and Cy3-Human Serum Albumin and Human IgG respectively.
For Wnt signaling experiments, mono- and co-culture systems were used. […]
Figure 6 Evaluation of Wnt signaling in the induction of BBB properties in ECs. […] After 4 days of coculture, the paracellular permeability and cell organization were evaluated. (D) Fluorescence microscopy images showing the expression of ZO-1 in untreated ECs or ECs treated with XAV 939 (1 µM) for 4 days. […]

[2] = system: CD34+-derived ECs co-cultured with pericytes; assay: Cell viability of ECs under Wnt antagonist; assay type: cell-based, human; conditions: co-culture with pericytes, 4 days
[3] = system: iPSC-derived ECs with astrocytes; set-up: method as in PMID 24561821; conditions: cited from earlier work

| SMILES | paracellular permeability of the EC monolayer to lucifer yellow [1] | cell viability [2] | TEER of the BBB model [3] |
| --- | --- | --- | --- |
| Oc1nc(-c2ccc(C(F)(F)F)cc2)nc2c1CSCC2 [XAV-939] | increased | did not affect | – |
| CC1=C(/C=C/C(C)=C/C=C/C(C)=C/C(=O)O)C(C)(C)CCC1 [retinoic acid] | – | – | up to 5000 Ω×cm^2 |
